Columns and labels:
wheat = assay: Test B postemergence herbicide test; format: in vivo, Triticum aestivum; set-up: key to Wheat plant response rating: 0 = no effect, 100 = complete control; settings: scale 0 (no effect) to 100 (complete control)
Outline: (§1)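 Greenhouse test; postemergence application to plants at 1–4 leaves (2–18 cm); paddy species at 2 leaves; evaluated visually vs controls at 13–15 days; scale 0–100 (100 = complete control).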

velvetleaf [1] = assay: Test B pre-/postemergence herbicide test; format: in vivo, Abutilon theophrasti
Outline: (§2)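 Visual rating, 0 (no effect) to 100 (complete control), versus untreated controls after 13–15 d in greenhouse. Pre- and postemergence applications (postemergence plants 2–18 cm, 1–4 leaves); flooded paddy arm at 2-leaf stage. Compounds in non-phytotoxic solvent plus surfactant.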

barnyardgrass [2] = assay: Test B pre-/postemergence herbicide test; format: in vivo, Echinochloa crus-galli
Outline: (§3)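 Greenhouse pot assay with simultaneous preemergence (treated seed) and postemergence (2–18 cm seedlings) applications of surfactant-containing, non-phytotoxic solvent formulations. Response scored visually 13–15 days later on a 0–100 scale, 100 meaning complete control.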

giant foxtail [3] = assay: Test B pre-/postemergence herbicide test; format: in vivo, Setaria faberi
Outline: as §2

morningglory [4] = assay: Test B pre-/postemergence herbicide test; format: in vivo, Ipomoea coccinea
Outline: as §3

giant foxtail [5] = assay: Test A pre-/postemergence herbicide test; format: in vivo, Setaria faberi
Outline: (§4)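 Seeds sown in sandy loam received a preemergence directed soil spray of compound in non-phytotoxic solvent with surfactant; postemergence plants (2–10 cm, one- to two-leaf stage) were sprayed to runoff at the same time. After ~10 days in greenhouse, injury was rated visually versus untreated controls (0 = no effect, 100 = complete control).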

Surinam grass = assay: Test B pre-/postemergence herbicide test; format: in vivo, Urochloa decumbens
Outline: as §2

barnyardgrass [6] = assay: Test B flooded paddy test; format: in vivo, Echinochloa crus-galli; settings: 1000 g ai/ha, visual rating, scale 0 to 100 (0 no effect, 100 complete control), 13 to 15 days
Outline: as §1

large crabgrass [7] = assay: Test B pre-/postemergence herbicide test; format: in vivo, Digitaria sanguinalis
Outline: as §2

ducksalad = assay: Test B flooded paddy test; format: in vivo, Heteranthera limosa; settings: 1000 g ai/ha, visual rating, scale 0 to 100 (0 no effect, 100 complete control), 13 to 15 days
Outline: as §1

[8] = tested on: small flower umbrella sedge; assay: Test B flooded paddy test; format: in vivo, Cyperus difformis; settings: 1000 g ai/ha, visual rating, scale 0 to 100 (0 no effect, 100 complete control), 13 to 15 days
Outline: as §1

wild oat = assay: Test B postemergence herbicide test; format: in vivo, Avena fatua; settings: scale 0 (no effect) to 100 (complete control)
Outline: as §1

rice = assay: Test B flooded paddy test; format: in vivo, Oryza sativa; settings: 1000 g ai/ha, visual rating, scale 0 to 100 (0 no effect, 100 complete control), 13 to 15 days
Outline: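 Read-out: visual comparison with controls, scored 0 to 100, where 100 means complete control and 0 no effect. Formulated chemicals were applied postemergence to plants 2–18 cm tall (1- to 4-leaf), or to flooded-paddy plants at the 2-leaf stage, then held 13 to 15 days under glass.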

velvetleaf [9] = assay: Test A pre-/postemergence herbicide test; format: in vivo, Abutilon theophrasti
Outline: as §4

blackgrass = assay: Test B postemergence herbicide test; format: in vivo, Alopecurus myosuroides; settings: scale 0 (no effect) to 100 (complete control)
Outline: as §1

barnyardgrass [10] = assay: Test A pre-/postemergence herbicide test; format: in vivo, Echinochloa crus-galli
Outline: as §4

morningglory [11] = assay: Test A pre-/postemergence herbicide test; format: in vivo, Ipomoea spp.
Outline: as §4

lambsquarters = assay: Test B pre-/postemergence herbicide test; format: in vivo, Chenopodium album
Outline: as §2

cocklebur = assay: Test B pre-/postemergence herbicide test; format: in vivo, Xanthium strumarium
Outline: as §3

pigweed = assay: Test B pre-/postemergence herbicide test; format: in vivo, Amaranthus retroflexus
Outline: as §2

large crabgrass [12] = assay: Test A pre-/postemergence herbicide test; format: in vivo, Digitaria sanguinalis
Outline: as §4

redroot pigweed = assay: Test A pre-/postemergence herbicide test; format: in vivo, Amaranthus retroflexus
Outline: as §4

corn = assay: Test B pre-/postemergence herbicide test; format: in vivo, Zea mays
Outline: as §2

[13] = Postemergence, 500 g ai/ha, visual rating after 13 to 15 days
[14] = postemergence, 125 g ai/ha, visual rating
[15] = 500 g ai/ha, visual rating 0-100, 0 no effect, 100 complete control, preemergence
[16] = Postemergence, 500 g ai/ha, visual rating after 13 to 15 days, scale 0 (no effect) to 100 (complete control)
[17] = postemergence, 125 g ai/ha, visual rating, scale 0 (no effect) to 100 (complete control)
[18] = preemergence, 125 g ai/ha, 0 to 100 scale, 0 is no effect, 100 is complete control
[19] = Postemergence, 125 g ai/ha, 0 to 100 scale, 0 no effect, 100 complete control
[20] = Postemergence, 500 g ai/ha, 0 to 100 scale, 0 no effect, 100 complete control
[21] = Preemergence, 500 g ai/ha, visual rating, 0 to 100 scale (0 no effect, 100 complete control)
[22] = preemergence, 125 g ai/ha, visual injury, 0 to 100 scale (0 no effect, 100 complete control)

CC(=NO)c1cccc(NC(=O)c2cc(C(C)(C)C)nn2C(C)C)c1 [Compound 110]
20: Plant response rating, Barnyardgrass (barnyardgrass [2]; [16]) | Plant response rating, Foxtail, Giant (giant foxtail [3]; [15]) | Morningglory plant response rating (morningglory [4]; [17]) | Plant response rating, Morningglory (morningglory [4]; [18]) | Foxtail, Giant plant response rating (giant foxtail [5]; [19]) | Surinam Grass plant response rating (Surinam grass; [17]) | Plant response rating, Crabgrass, Large (large crabgrass [7]; [16]) | Sedge, Umbrella plant response rating [8] | Rice plant response rating (rice) | Morningglory plant response rating (morningglory [11]; [21]) | Plant response rating, Lambsquarters (lambsquarters; [18]) | Pigweed plant response rating (pigweed; [17]) | Crabgrass, Large plant response rating (large crabgrass [12]; [21]) | Plant response rating, Corn (corn; [16])
10: Wheat plant response rating (wheat; [14]) | Plant response rating, Velvetleaf (velvetleaf [1]; [15]) | Plant response rating, Barnyardgrass (barnyardgrass [2]; [15]) | Barnyardgrass plant response rating (barnyardgrass [2]; [17]) | Plant response rating, Barnyardgrass (barnyardgrass [2]; [18]) | Plant response rating, Foxtail, Giant (giant foxtail [3]; [16]) | Foxtail, Giant plant response rating (giant foxtail [3]; [17]) | Plant response rating, Foxtail, Giant (giant foxtail [3]; [18]) | Plant response rating, Surinam Grass (Surinam grass; [15]) | Plant response rating, Surinam Grass (Surinam grass; [18]) | Crabgrass, Large plant response rating (large crabgrass [7]; [17]) | Velvetleaf plant response rating (velvetleaf [9]; [19]) | Velvetleaf plant response rating (velvetleaf [9]; [20]) | Velvetleaf plant response rating (velvetleaf [9]; [21]) | Velvetleaf plant response rating (velvetleaf [9]; [22]) | Barnyardgrass plant response rating (barnyardgrass [10]; [22]) | Morningglory plant response rating (morningglory [11]; [20]) | Morningglory plant response rating (morningglory [11]; [22]) | Plant response rating, Cocklebur (cocklebur; [15]) | Cocklebur plant response rating (cocklebur; [17]) | Plant response rating, Pigweed (pigweed; [15]) | Pigweed plant response rating (redroot pigweed; [21]) | Pigweed plant response rating (redroot pigweed; [22]) | Corn plant response rating (corn; [17])
40: Plant response rating, Velvetleaf (velvetleaf [1]; [16]) | Lambsquarters plant response rating (lambsquarters; [17]) | Plant response rating, Cocklebur (cocklebur; [16]) | Pigweed plant response rating (redroot pigweed; [19])
50: Plant response rating, Pigweed (pigweed; [16]) | Pigweed plant response rating (redroot pigweed; [20])
30: Plant response rating, Wheat (wheat; [13]) | Velvetleaf plant response rating (velvetleaf [1]; [17]) | Plant response rating, Morningglory (morningglory [4]; [16]) | Plant response rating, Surinam Grass (Surinam grass; [16]) | Barnyardgrass plant response rating (barnyardgrass [6]) | Barnyardgrass plant response rating (barnyardgrass [10]; [19]) | Barnyardgrass plant response rating (barnyardgrass [10]; [20]) | Crabgrass, Large plant response rating (large crabgrass [12]; [20])
80: Plant response rating, Crabgrass, Large (large crabgrass [7]; [18])
90: Plant response rating, Lambsquarters (lambsquarters; [15])
0: Plant response rating, Velvetleaf (velvetleaf [1]; [18]) | Foxtail, Giant plant response rating (giant foxtail [5]; [21]) | Foxtail, Giant plant response rating (giant foxtail [5]; [22]) | Ducksalad plant response rating (ducksalad) | Plant response rating, Oat, Wild (wild oat; [13]) | Oat, Wild plant response rating (wild oat; [14]) | Plant response rating, Blackgrass (blackgrass; [13]) | Blackgrass plant response rating (blackgrass; [14]) | Morningglory plant response rating (morningglory [11]; [19]) | Plant response rating, Cocklebur (cocklebur; [18]) | Plant response rating, Pigweed (pigweed; [18]) | Plant response rating, Corn (corn; [15]) | Plant response rating, Corn (corn; [18])
5: Barnyardgrass plant response rating (barnyardgrass [10]; [21])
25: Foxtail, Giant plant response rating (giant foxtail [5]; [20]) | Crabgrass, Large plant response rating (large crabgrass [12]; [19])
15: Crabgrass, Large plant response rating (large crabgrass [12]; [22])
60: Plant response rating, Morningglory (morningglory [4]; [15]) | Plant response rating, Lambsquarters (lambsquarters; [16])
100: Plant response rating, Crabgrass, Large (large crabgrass [7]; [15])
